Experiments:
AGE-BSA = target: T1, AGE-BSA (Bos taurus, UniProt P02769); assay: In-vitro screening for AGE-breaking activity (AGE-BSA incubated with compound; ELISA / gel permeation chromatography); assay type: biochemical, bovine; conditions: 37° C., 24 hours
T1 construct: Bovine serum albumin (fraction V) (BSA); from tissue; host or cells: bovine serum (fraction V); own knowledge: fraction V is the albumin fraction of plasma/serum
Description: Fluorescence was used as the criteria to monitor the increased AGE formation.
160 mg/ml of protein, bovine serum albumin, BSA and 1.6M glucose sugar were dissolved in phosphate buffered saline, PBS. Sodium azide was added at 0.02% concentration as a preservative. The solution was filtered asceptically through a […] filter and kept for aging at 37° C. for 16 weeks. After 16 weeks the solution was dialyzed against PBS, aliquoted and stored at −20° C.
To determine the AGE breaking activity, 10 μg/ml of the 16 weeks AGE-BSA was incubated with different concentrations of the test compounds at 37° C. for 24 hours and AGE breaking activity of the test compounds by ELISA was determined.
• 1. Different concentrations of 16 weeks AGE-BSA were coated on a microtiter plate as standard. Each concentration is coated in triplicates. • 2. The test samples were coated on microtiter plate at a concentration of 5 ng. to 20 ng per well in triplicates. • 3. The plate was incubated at 37° C. for one hour. • 4. After incubation the plate was washed with PBST (PBS with 0.05% Tween 20). • 5. Blocking with 5% skimmed milk in PBS at 37° C. for one hour was done. • 6. The plate was washed with PBST. • 7. Primary antibody against AGE-BSA was added and the plate is incubated at 37° C. for one hour. • 8. The plate was washed with PBST. • 9. Secondary antibody anti rabbit HRPO (Horse-Radish Per Oxidase) conjugate was added and the plate is incubated at 37° C. for one hour. • 10. The plate was washed with PBST. • 11. Colour development with OPD (orthophenylenediamine dihydrochloride) and hydrogen peroxide was done. • 12. OD (optical density) at (450 nm reading –620 nm reading) was measured after incubation at 37° C. for 15 minutes with Microplate ELISA Reader.
The breaker activity of the compounds were determined by the following formula:
[formula] OD450-620Control=Absorbance of 20 ng AGE-BSA after incubation at 37° C. for 24 hours without test compound. OD450-620Test=Absorbance of 20 ng AGE-BSA after incubation at 37° C. for 24 hours with required concentration of test compound.
Gel Permeation Chromatography based method was used to determine AGE breaking activities of the compounds.
Separation by Gel Permeation Chromatography (GPC) depends on differences in the size, more precisely the hydrodynamic volume, of the proteins in a sample. […] The pores of a column particle are differentially accessible to smaller particles, depending on their size. This volume of the column is called (V1). The total accessible volume (Vt) is the sum of the volume outside the particles (V0) and the volume accessible inside the particles (V1): Vt=V0+Vi Therefore, in a typical Gel Permeation Chromatography (GPC) run, high molecular weight molecules elute at a lower retention time whereas lower molecular weight molecules are retained for longer time. For the purpose of quantification, the area under the curve for the respective molecule is recorded. The same principle has been applied in the in vitro screening of the molecules of instant invention. Highly cross-linked Advanced Glycosylated Endproducts (AGE) were prepared in vitro by incubating Bovine Serum Albumin (BSA) with glucose for a period of 16 weeks. […] The reduction in the area of AGE-BSA incubated in the presence of AGE breaker as compared to that of control AGE BSA (incubated in absence of AGE breaker) gives an estimate of the AGE breaker activity of the drug. In order to check the non-specific activity of the molecule, a similar experiment was repeated with BSA as well. Methodology:
A known concentration of 16-week AGE-BSA was incubated with and without a predetermined concentration of the drug at 37° C. for 24 hours in clean transparent glass test tubes. The solution without drug served as the control and the solution containing the drug was treated as the test sample.
Gel permeation chromatography was performed on equal volumes of control AGE-BSA preparation and solution of AGE-BSA treated with drug. […]

[1] = Free radical scavenging activity on ABTS radical cation; assay type: biochemical
Description: This method measures the relative ability of free radical scavenging substances to scavenge the ABTS.^+ i.e. 2,2-Azino-bis-(3-ethyl benzo thiazoline-6-sulfonate) radical cation as compared to a standard amount of standard or free radical scavengers antioxidants. Incubation of ABTS with Peroxidase (metmyoglobin) and hydrogen peroxide results in the production of radical cation ABTS.^+. This species is blue-green in colour and can be detected at 730 nm. Antioxidants or free radical scavengers in the added sample that causes suppression of the color to a degree that is proportional to their concentration.
Preparation of Buffer Solutions: • a. Phosphate Citrate Buffer (pH 5.0): 48.5 ml of 0.1M citric acid with sufficient 0.2M disodium hydrogen phosphate to produce 100 ml. • b. Phosphate Buffer Saline (PBS): Dissolve 40.0 g of NaCl, 1.0 g of KCl, 1.0 g of KH2PO4 and 3.05 g of Na2HPO4 in 1 liter milli-Q water. Dilute 200 ml of above solution to 1 liter with milli-Q water (pH 7.4–7.6).
Preparation of ABTS Stock Solution (2 mM): • 1 tablet (10 mg) was dissolved in phosphate citrate buffer (pH 5.0) to give a 2 mM solution.
Preparation of Horse Radish Peroxidase Working Solution: • 0.1 mg was dissolved in 10 ml of phosphate buffer saline, 1 ml of this solution was diluted to 100 ml with PBS.
Preparation of Hydrogen Peroxide (1.08 mM) Solution: • 12 μl of Hydrogen Peroxide (30% w/v) was diluted to 100 ml with PBS.
Preparation of Drug Solutions: • 0.1 mM of stock solution of the drug was prepared which was serially diluted in PBS to get 0.05 mM, 0.025 mM and 0.0125 mM solutions.
Preparation of ABTS Radical Stock Solution: • To 2 ml of ABTS stock solution, 1 ml of horseradish Peroxidase working solution was added. • As soon as 2 ml of Hydrogen peroxide solution was added to the above solution, blue-green colour of the ABTS radicals appeared. This solution was incubated at 30° C. for 30 min in order to ensure the completion reaction. Make up the volume to 10 ml with PBS.
Preparation of Control Solution: • 900 μl of ABTS radical stock solution were added to an eppendorf tube. To it were added 100 μl of PBS solution.
Preparation of Test Solution: • 900 μl of ABTS radical stock solutions were added to different eppendorf tubes. To it were added 100 μl of various concentrations of drug solution.
Measurement of Absorbance (O.D): • The absorbance of control and test samples was recorded immediately at 730 nm taking PBS as blank.
Calculation: • The percent antioxidant activity was calculated according to the formula: % Antioxidant activity=100−[O.D of test sample/O.D of control×100]

T1 sequence (P02769 25-607): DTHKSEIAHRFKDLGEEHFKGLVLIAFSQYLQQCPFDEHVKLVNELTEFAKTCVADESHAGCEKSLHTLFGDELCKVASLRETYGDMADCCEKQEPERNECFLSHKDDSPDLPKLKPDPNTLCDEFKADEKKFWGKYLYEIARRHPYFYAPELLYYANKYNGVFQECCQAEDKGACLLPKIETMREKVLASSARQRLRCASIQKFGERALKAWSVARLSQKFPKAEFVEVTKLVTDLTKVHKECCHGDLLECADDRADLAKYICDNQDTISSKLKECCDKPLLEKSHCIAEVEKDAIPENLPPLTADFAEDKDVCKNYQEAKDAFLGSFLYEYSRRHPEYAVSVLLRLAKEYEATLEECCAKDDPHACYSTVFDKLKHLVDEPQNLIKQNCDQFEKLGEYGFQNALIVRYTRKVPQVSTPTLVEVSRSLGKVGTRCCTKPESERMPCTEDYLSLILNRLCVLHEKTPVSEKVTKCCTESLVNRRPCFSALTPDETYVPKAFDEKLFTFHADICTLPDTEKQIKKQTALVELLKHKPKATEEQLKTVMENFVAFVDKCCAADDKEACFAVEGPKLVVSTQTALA

## 1-(2-Cyclopropylamino-2-oxoethyl)-3-[(1-cyclohexyl-3-phenylmethyl)pyrazol-5-yl]pyridinium chloride [Compound 23]
AGE-BSA; 10 mM compound
  % Breakage: 53.29%

## 1-(2-Cyclopropylamino-2-oxoethyl)-3-[(3-(2-cyclohexylethyl)pyrazol-5-yl]pyridinium chloride [Compound 21]
AGE-BSA; 10 mM compound
  % Breakage: 93.43%

## 1-(2-Thien-2′-yl-2-oxoethyl)-3-[(1-cyclohexyl-3-phenoxymethyl)pyrazol-5-yl]pyridinium chloride [Compound 38]
[1]; 12.5 μM
  Relative Free Radical Scavenging Activity (%) on ABTS: 27.70%
[1]; 25.0 μM
  Relative Free Radical Scavenging Activity (%) on ABTS: 44.78%
[1]; 50.0 μM
  Relative Free Radical Scavenging Activity (%) on ABTS: 61.98%
[1]; 100.0 μM
  Relative Free Radical Scavenging Activity (%) on ABTS: 66.92%

## Cc1cc(C)n(Cc2cc(-c3ccc[n+](CC(=O)NC4CC4)c3)[nH]n2)n1.[Br-] [Compound 7, 1-[2-(Cyclopropylamino)-2-oxoethyl]3-[3-{(3,5-dimethylpyrazol-1-yl)methyl}-pyrazol-5-yl]-pyridinium bromide]
AGE-BSA; 1.0 mM compound
  % Breakage: 51.72%

## Cc1cc(C)n(Cc2cc(-c3ccc[n+](CC(=O)c4cc([N+](=O)[O-])cs4)c3)[nH]n2)n1.[Br-] [Compound 8, 1-{2-(4-Nitro-2-thienyl)-2-oxoethyl}-3-[3{(3,5-dimethylpyrazol-1-yl)methyl}-pyrazol-5-yl]-pyridinium bromide]
AGE-BSA; 5 mM compound
  % Breakage: 85.31%
[1]; 12.5 μM
  Relative Free Radical Scavenging Activity (%) on ABTS: 22.22%
[1]; 25.0 μM
  Relative Free Radical Scavenging Activity (%) on ABTS: 38.18%
[1]; 50.0 μM
  Relative Free Radical Scavenging Activity (%) on ABTS: 67.14%
[1]; 100.0 μM
  Relative Free Radical Scavenging Activity (%) on ABTS: 99.71%

## Cc1ccc(C(=O)C[n+]2cccc(-c3cc(Cc4ccccc4)n[nH]3)c2)s1.[Cl-] [Compound 12, 1-(2-(5-Methyl-2-Thienyl)-2-oxoethyl)-3-[(3-phenylmethyl)pyrazol-5-yl]pyridinium chloride]
AGE-BSA; 10 mM compound
  % Breakage: 89.23%
[1]; 12.5 μM
  Relative Free Radical Scavenging Activity (%) on ABTS: 22.34%
[1]; 25.0 μM
  Relative Free Radical Scavenging Activity (%) on ABTS: 40.97%
[1]; 50.0 μM
  Relative Free Radical Scavenging Activity (%) on ABTS: 71.47%
[1]; 100.0 μM
  Relative Free Radical Scavenging Activity (%) on ABTS: 84.62%

## O=C(C[n+]1cccc(-c2cc(Cc3ccccc3)n[nH]2)c1)c1ccccc1.[Br-] [Compound 14, 1-(2-Phenyl-2-oxoethyl)-3-[(3-phenylmethyl)pyrazol-5-yl]-pyridinium bromide]
AGE-BSA; 10 mM compound
  % Breakage: 58.14%

## O=C(C[n+]1cccc(-c2cc(Cc3ccccc3)nn2-c2ccccc2)c1)NC1CC1.[Cl-] [Compound 15, 1-(2-Cyclopropylamino-2-oxoethyl) 3-[(1-phenyl-3-phenylmethyl)pyrazol-5-yl]-pyridinium chloride]
AGE-BSA; 10 mM compound
  % Breakage: 80.03%

## O=C(C[n+]1cccc(-c2cc(COc3ccccc3)n[nH]2)c1)N1CCC(Cc2ccccc2)CC1.[Br-] [Compound 16, 1-(2-(4-Benzyl-1-piperidinyl)-2-oxoethyl) 3-[(3-phenoxymethyl)pyrazol-5-yl]-pyridinium bromide]
AGE-BSA; 10 mM compound
  % Breakage: 95.51%

## Cc1ccc(C(=O)C[n+]2cccc(-c3cc(CCC4CCCCC4)n[nH]3)c2)s1.[Cl-] [Compound 20]
[1]; 12.5 μM
  Relative Free Radical Scavenging Activity (%) on ABTS: 6.15%
[1]; 25.0 μM
  Relative Free Radical Scavenging Activity (%) on ABTS: 9.06%
[1]; 50.0 μM
  Relative Free Radical Scavenging Activity (%) on ABTS: 34.31%
[1]; 100.0 μM
  Relative Free Radical Scavenging Activity (%) on ABTS: 57.75%

## O=C(C[n+]1cccc(-c2cc(Cc3ccccc3)n[nH]2)c1)NC12CC3CC(CC(C3)C1)C2.[Cl-] [Compound 25, 1-{2-(1-Adamantylamino-2-oxoethyl)}-3-[(3-phenylmethyl)pyrazol-5-yl]pyridinium chloride]
AGE-BSA; 5 mM compound
  % Breakage: 98.59%

## Cc1cc(C)n(Cc2cc(-c3ccc[n+](CC(=O)c4cc([N+](=O)[O-])cs4)c3)n(C3CCCCC3)n2)n1.[Br-] [Compound 27, 1-(2-(4-nitro-2-thienyl)-2-oxoethyl)-3-[(1-cyclohexyl-3-(3,5-dimethylpyrazol-1-yl)-methyl)pyrazol-5-yl]pyridinium bromide]
AGE-BSA; 10 mM compound
  % Breakage: 86.98%
[1]; 12.5 μM
  Relative Free Radical Scavenging Activity (%) on ABTS: 16.16%
[1]; 25.0 μM
  Relative Free Radical Scavenging Activity (%) on ABTS: 27.12%
[1]; 50.0 μM
  Relative Free Radical Scavenging Activity (%) on ABTS: 39.05%
[1]; 100.0 μM
  Relative Free Radical Scavenging Activity (%) on ABTS: 51.04%

## O=C(C[n+]1cccc(-c2cc(COc3ccccc3)n[nH]2)c1)NC1CC1.[Cl-] [Compound 31, 1-(2-Cyclopropylamino-2-oxoethyl)-3-[(3-phenoxymethyl)pyrazol-5-yl]pyridinium chloride]
AGE-BSA; 10 mM compound
  % Breakage: 45.72%

## O=C(C[n+]1cccc(-c2cc(CCC3CCCCC3)nn2-c2ccccc2)c1)c1cccs1.[Br-] [Compound 37, 1-(2-Thien-2′-yl-2-oxoethyl)-3-[1-phenyl-3-(2-cyclohexylethyl)pyrazol-5-yl]pyridinium bromide]
AGE-BSA; 10 mM compound
  % Breakage: 85.45%
[1]; 12.5 μM
  Relative Free Radical Scavenging Activity (%) on ABTS: 21.79%
[1]; 25.0 μM
  Relative Free Radical Scavenging Activity (%) on ABTS: 37.92%
[1]; 50.0 μM
  Relative Free Radical Scavenging Activity (%) on ABTS: 41.95%
[1]; 100.0 μM
  Relative Free Radical Scavenging Activity (%) on ABTS: 39.46%

## Cl.c1ccc(OCc2cc(-c3cccnc3)[nH]n2)cc1 [Compound 40, 3-[(3-Phenoxymethyl)pyrazol-5-yl]pyridine hydrochloride]
AGE-BSA; 10 mM compound
  % Breakage: 66.06%

Source: patent US7223777B2, “Compounds for the management of aging-related and diabetic vascular complications, process for their preparation, therapeutic and cosmetic uses thereof” (Torrent Pharmaceuticals Ltd., priority 2001, dated 2007)
